Assays:
[1] = target: GDP-bound HRAS wild-type protein (Homo sapiens, UniProt P01112); assay: Binding to HRAS by surface plasmon resonance (SPR), Single Cycle Kinetics; settings: KD ratio HRAS/KRAS, class symbols
[2] = target: GDP-bound NRAS wild-type protein (Homo sapiens, UniProt P01111); assay: Binding to NRAS by surface plasmon resonance (SPR), Single Cycle Kinetics; settings: KD ratio NRAS/KRAS, class symbols
GDP-bound NRAS wild-type protein, sequence (P01111 whole entry): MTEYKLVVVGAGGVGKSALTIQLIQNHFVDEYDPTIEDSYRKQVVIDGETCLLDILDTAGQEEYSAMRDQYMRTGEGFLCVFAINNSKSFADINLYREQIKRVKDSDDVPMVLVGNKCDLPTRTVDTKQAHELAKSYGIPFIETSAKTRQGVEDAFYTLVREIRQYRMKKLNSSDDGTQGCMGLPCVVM

GDP-bound HRAS wild-type protein, sequence (P01112 whole entry): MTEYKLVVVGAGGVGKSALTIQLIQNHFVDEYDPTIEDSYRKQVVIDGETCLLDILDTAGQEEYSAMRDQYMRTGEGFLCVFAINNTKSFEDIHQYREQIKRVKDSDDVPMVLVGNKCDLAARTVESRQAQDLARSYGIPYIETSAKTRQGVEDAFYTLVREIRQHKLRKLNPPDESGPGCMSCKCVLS

Row | Structure (SMILES) | HRAS/KRAS (ratio of KD value with respect to GDP-bound HRAS wild-type protein to KD value with respect to KRAS) [1] | NRAS/KRAS (ratio of KD value with respect to GDP-bound NRAS wild-type protein to KD value with respect to KRAS) [2]
1 | CCO[C@@H]1C[C@H]2C(=O)NC3(CC(C)(C)C3)C(=O)N(C)[C@@H](C(CC)CC)C(=O)N(C)[C@H](C(=O)N(C)C)CC(=O)N(C)[C@H]3CCC/C=C/c4ccc(cc4)C[C@@H](C(=O)N(C)CC(=O)N[C@@H](CCc4cc(F)c(C(F)(F)F)c(F)c4)C(=O)N2C1)N1CC/C=C\C[C@@H](C1=O)N(C)C(=O)CN(C)C(=O)[C@H]([C@@H](C)CC)NC3=O [PP2575] | A (a compound having 10 or more and less than 20 is denoted as A) | A (a compound having 10 or more and less than 20 is denoted as A)
2 | CCO[C@@H]1C[C@H]2C(=O)NC3(CC(C)(C)C3)C(=O)N(C)[C@@H](C(CC)CC)C(=O)N(C)[C@H](C(=O)N3CCCC3)CC(=O)N(C)[C@H]3CCC/C=C/c4ccc(cc4)C[C@@H](C(=O)N(C)CC(=O)N[C@@H](CCc4cc(F)c(C(F)(F)F)c(F)c4)C(=O)N2C1)N1CC/C=C\C[C@@H](C1=O)N(C)C(=O)CN(C)C(=O)[C@H]([C@@H](C)CC)NC3=O [PP2576] | A (a compound having 10 or more and less than 20 is denoted as A) | A (a compound having 10 or more and less than 20 is denoted as A)
3 | CCO[C@@H]1C[C@H]2C(=O)NC3(CC(C)(C)C3)C(=O)N(C)[C@@H](C3CCCC3)C(=O)N(C)[C@H](C(=O)N(C)CC)CC(=O)N(C)[C@H]3CCC/C=C/c4ccc(cc4)C[C@@H](C(=O)N(C)CC(=O)N[C@@H](CCc4ccc(Cl)c(Cl)c4)C(=O)N2C1)N1CC/C=C\C[C@@H](C1=O)N(C)C(=O)CN(C)C(=O)[C@H]([C@@H](C)CC)NC3=O [PP2577] | A (a compound having 10 or more and less than 20 is denoted as A) | A (a compound having 10 or more and less than 20 is denoted as A)
4 | CCO[C@@H]1C[C@H]2C(=O)NC3(CC(C)(C)C3)C(=O)N(C)[C@@H](C3CCCC3)C(=O)N(C)[C@H](C(=O)N3CCCCC3)CC(=O)N(C)[C@H]3CCC/C=C/c4ccc(cc4)C[C@@H](C(=O)N(C)CC(=O)N[C@@H](CCc4ccc(Cl)c(Cl)c4)C(=O)N2C1)N1CC/C=C\C[C@@H](C1=O)N(C)C(=O)CN(C)C(=O)[C@H]([C@@H](C)CC)NC3=O [PP2578] | A (a compound having 10 or more and less than 20 is denoted as A) | AA (a compound having 20 or more is denoted as AA)
5 | CCO[C@@H]1C[C@H]2C(=O)NC3(CC(C)(C)C3)C(=O)N(C)[C@@H](C(CC)CC)C(=O)N(C)[C@H](C(=O)N(C)C)CC(=O)N(C)[C@H]3CCC/C=C/c4ccc(cc4)C[C@@H](C(=O)N(C)CC(=O)N[C@@H](CCc4ccc(Cl)c(Cl)c4)C(=O)N2C1)N1CC/C=C\C[C@@H](C1=O)N(C)C(=O)CN(C)C(=O)[C@H]([C@@H](C)CC)NC3=O [PP2580] | A (a compound having 10 or more and less than 20 is denoted as A) | AA (a compound having 20 or more is denoted as AA)
6 | CCO[C@@H]1C[C@H]2C(=O)NC3(CC(C)(C)C3)C(=O)N(C)[C@@H](C(CC)CC)C(=O)N(C)[C@H](C(=O)N3CCCC3)CC(=O)N(C)[C@H]3CCC/C=C/c4ccc(cc4)C[C@@H](C(=O)N(C)CC(=O)N[C@@H](CCc4ccc(Cl)c(Cl)c4)C(=O)N2C1)N1CC/C=C\C[C@@H](C1=O)N(C)C(=O)CN(C)C(=O)[C@H]([C@@H](C)CC)NC3=O [PP2581] | A (a compound having 10 or more and less than 20 is denoted as A) | AA (a compound having 20 or more is denoted as AA)
7 | CCO[C@@H]1C[C@H]2C(=O)NC3(CC(C)(C)C3)C(=O)N(C)[C@@H](C3CCCC3)C(=O)N(C)[C@H](C(=O)N3CCCC3)CC(=O)N(C)[C@H]3CCC/C=C/c4ccc(cc4)C[C@@H](C(=O)N(C)CC(=O)N[C@@H](CCc4cc(F)c(C(F)(F)F)c(F)c4)C(=O)N2C1)N1CC/C=C\C[C@@H](C1=O)N(C)C(=O)CN(C1CC1)C(=O)[C@H]([C@@H](C)CC)NC3=O [PP2583] | A (a compound having 10 or more and less than 20 is denoted as A) | A (a compound having 10 or more and less than 20 is denoted as A)
8 | CCO[C@@H]1C[C@H]2C(=O)NC3(CC(C)(C)C3)C(=O)N(C)[C@@H](C(CC)CC)C(=O)N(C)[C@H](C(=O)N(C)C)CC(=O)N(C)[C@H]3CC/C=C/c4ccc(cc4)C[C@@H](C(=O)N(C)CC(=O)N[C@@H](CCc4cc(F)c(C(F)(F)F)c(F)c4)C(=O)N2C1)N1CC/C=C\C[C@@H](C1=O)N(C)C(=O)CN(C)C(=O)[C@H]([C@@H](C)CC)NC3=O [PP2586] | B (a compound having 3 or more and less than 10 is denoted as B) | A (a compound having 10 or more and less than 20 is denoted as A)
9 | CCO[C@@H]1C[C@H]2C(=O)NC3(CC(C)(C)C3)C(=O)N(C)[C@@H](C(CC)CC)C(=O)N(C)[C@H](C(=O)N(C)C)CC(=O)N(C)[C@H]3CC/C=C/c4ccc(cc4)C[C@@H](C(=O)N(C)CC(=O)N[C@@H](CCc4ccc(Cl)c(Cl)c4)C(=O)N2C1)N1CC/C=C\C[C@@H](C1=O)N(C)C(=O)CN(C)C(=O)[C@H]([C@@H](C)CC)NC3=O [PP2589] | A (a compound having 10 or more and less than 20 is denoted as A) | AA (a compound having 20 or more is denoted as AA)
10 | CCO[C@@H]1C[C@H]2C(=O)NC3(CC(C)(C)C3)C(=O)N(C)[C@@H](C3CCCC3)C(=O)N(C)[C@H](C(=O)N(C)CC)CC(=O)N(C)[C@H]3CCCC/C=C/c4ccc(cc4)C[C@@H](C(=O)N(C)CC(=O)N[C@@H](CCc4ccc(Cl)c(Cl)c4)C(=O)N2C1)N1CC/C=C\C[C@@H](C1=O)N(C)C(=O)CN(C)C(=O)[C@H]([C@@H](C)CC)NC3=O [PP2592] | A (a compound having 10 or more and less than 20 is denoted as A) | A (a compound having 10 or more and less than 20 is denoted as A)
11 | CCO[C@@H]1C[C@H]2C(=O)NC3(CC(C)(C)C3)C(=O)N(C)[C@@H](C3CCCC3)C(=O)N(C)[C@H](C(=O)N3CCCC3)CC(=O)N(C)[C@H]3CCCC/C=C/c4ccc(cc4)C[C@@H](C(=O)N(C)CC(=O)N[C@@H](CCc4ccc(Cl)c(Cl)c4)C(=O)N2C1)N1CC/C=C\C[C@@H](C1=O)N(C)C(=O)CN(C)C(=O)[C@H]([C@@H](C)CC)NC3=O [PP2593] | A (a compound having 10 or more and less than 20 is denoted as A) | A (a compound having 10 or more and less than 20 is denoted as A)
12 | CCC(CC)[C@H]1C(=O)N(C)[C@H](C(=O)N(C)C)CC(=O)N(C)[C@H]2CCC/C=C/c3ccc(cc3)C[C@@H](C(=O)N(C)CC(=O)N[C@@H](CCc3cc(F)c(C(F)(F)F)c(F)c3)C(=O)N3C[C@H](OC(C)C)C[C@H]3C(=O)NC3(CC(C)(C)C3)C(=O)N1C)N1CC/C=C\C[C@@H](C1=O)N(C)C(=O)CN(C)C(=O)[C@H]([C@@H](C)CC)NC2=O [PP2594] | A (a compound having 10 or more and less than 20 is denoted as A) | A (a compound having 10 or more and less than 20 is denoted as A)
13 | CC[C@H](C)[C@@H]1NC(=O)[C@@H]2CCC/C=C/c3ccc(cc3)C[C@@H](C(=O)N(C)CC(=O)N[C@@H](CCc3ccc(Cl)c(Cl)c3)C(=O)N3C[C@H](OC(C)C)C[C@H]3C(=O)NC3(CC(C)(C)C3)C(=O)N(C)[C@@H](C3CCCC3)C(=O)N(C)[C@H](C(=O)N(C)CC)CC(=O)N2C)N2CC/C=C\C[C@@H](C2=O)N(C)C(=O)CN(C)C1=O [PP2595] | B (a compound having 3 or more and less than 10 is denoted as B) | A (a compound having 10 or more and less than 20 is denoted as A)
14 | CC[C@H](C)[C@@H]1NC(=O)[C@@H]2CCC/C=C/c3ccc(cc3)C[C@@H](C(=O)N(C)CC(=O)N[C@@H](CCc3ccc(Cl)c(Cl)c3)C(=O)N3C[C@H](OC(C)C)C[C@H]3C(=O)NC3(CC(C)(C)C3)C(=O)N(C)[C@@H](C3CCCC3)C(=O)N(C)[C@H](C(=O)N3CCCC3)CC(=O)N2C)N2CC/C=C\C[C@@H](C2=O)N(C)C(=O)CN(C)C1=O [PP2596] | A (a compound having 10 or more and less than 20 is denoted as A) | A (a compound having 10 or more and less than 20 is denoted as A)
15 | CCO[C@@H]1C[C@H]2C(=O)NC3(CC(C)(C)C3)C(=O)N(C)[C@@H](C3CCCC3)C(=O)N(C)[C@H](C(=O)N3CCCCC3)CC(=O)N(C)[C@H]3CC/C=C/c4ccc(cc4)C[C@@H](C(=O)N(C)CC(=O)N[C@@H](CCc4ccc(Cl)c(Cl)c4)C(=O)N2C1)N1CC/C=C\C[C@@H](C1=O)N(C)C(=O)CN(C)C(=O)[C@H]([C@@H](C)CC)NC3=O [PP2597] | A (a compound having 10 or more and less than 20 is denoted as A) | A (a compound having 10 or more and less than 20 is denoted as A)
